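Tested at 5 concentrations; 48 h exposure; 96-well plates; endpoints linearly interpolated, else capped at highest concentration. The concentration for full growth arrest is given as TGI.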
Key:
Assay in all cases: inhibition of tumour cell growth, NCI panel, 48 h
[1] = tested on: 786-0 renal
[2] = tested on: A549 NSCLC
[3] = tested on: ACHN renal
[4] = tested on: BT-549 breast
[5] = tested on: CAKI-1 renal
[6] = tested on: COLO 205 colon
[7] = tested on: DU-145 prostate
[8] = tested on: EKVX NSCLC
[9] = tested on: HCC-2998 colon
[10] = tested on: HCT-116 colon
[11] = tested on: HCT-15 colon
[12] = tested on: HOP-62 NSCLC
[13] = tested on: HOP-92 NSCLC
[14] = tested on: HT29 colon
[15] = tested on: IGROV1 ovarian
[16] = tested on: K-562 leukemia
[17] = tested on: KM12 colon
[18] = tested on: LOX IMVI melanoma
[19] = tested on: M14 melanoma
[20] = tested on: MALME-3M melanoma
[21] = tested on: MCF7 breast
[22] = tested on: MDA-MB-231 breast
[23] = tested on: MDA-MB-435
[24] = tested on: MOLT-4 leukemia
[25] = tested on: NCI-H226 lung
[26] = tested on: NCI-H23 lung
[27] = tested on: NCI-H460 lung
[28] = tested on: NCI/ADR-RES ovarian
[29] = tested on: OVCAR-3 ovarian
[30] = tested on: OVCAR-4 ovarian
[31] = tested on: OVCAR-5 ovarian
[32] = tested on: OVCAR-8 ovarian
[33] = tested on: PC-3 prostate
[34] = tested on: RPMI-8226 leukemia
[35] = tested on: SF-268 CNS
[36] = tested on: SF-539 CNS
[37] = tested on: SK-MEL-2 melanoma
[38] = tested on: SK-MEL-28 melanoma
[39] = tested on: SK-MEL-5 melanoma
[40] = tested on: SNB-19 CNS
[41] = tested on: SR leukemia
[42] = tested on: SW-620 colon
[43] = tested on: T-47D breast
[44] = tested on: TK-10 renal
[45] = tested on: U251 CNS
[46] = tested on: UACC-257 melanoma
[47] = tested on: UACC-62 melanoma
[48] = tested on: UO-31 renal
[49] = tested on: A498 renal
[50] = tested on: RXF 393 renal
[51] = tested on: SF-295 CNS
[52] = tested on: SK-OV-3 ovarian
[53] = tested on: SNB-75 CNS

`N#Cc1nnc2ccccc2c1N` was tested, and the TGI [1] was > 100 µM, the TGI [2] was > 100 µM and the TGI [3] was > 100 µM. The TGI [4] was > 100 µM, the TGI [5] was > 100 µM and the TGI [6] was > 100 µM. The TGI [7] was > 100 µM, the TGI [8] was > 100 µM and the TGI [9] was > 100 µM. For the same molecule, the TGI [10] was > 100 µM, the TGI [11] was > 100 µM and the TGI [12] was > 100 µM. For the same molecule, the TGI [13] was > 100 µM, the TGI [14] was > 100 µM and the TGI [15] was > 100 µM. The TGI [16] was > 100 µM, the TGI [17] was > 100 µM and the TGI [18] was > 100 µM. The TGI [19] was > 100 µM, the TGI [20] was > 100 µM and the TGI [21] was > 100 µM. For the same molecule, the TGI [22] was > 100 µM, the TGI [23] was > 100 µM and the TGI [24] was > 100 µM. The TGI [25] was > 100 µM, the TGI [26] was > 100 µM and the TGI [27] was > 100 µM. For the same molecule, the TGI [28] was > 100 µM, the TGI [29] was 26.4 µM and the TGI [30] was > 100 µM. For the same molecule, the TGI [31] was > 100 µM, the TGI [32] was > 100 µM and the TGI [33] was > 100 µM. The TGI [34] was > 100 µM, the TGI [35] was > 100 µM and the TGI [36] was > 100 µM. For the same molecule, the TGI [37] was > 100 µM, the TGI [38] was > 100 µM and the TGI [39] was > 100 µM. For the same molecule, the TGI [40] was > 100 µM, the TGI [41] was > 100 µM and the TGI [42] was > 100 µM. For the same molecule, the TGI [43] was > 100 µM, the TGI [44] was > 100 µM and the TGI [45] was > 100 µM. The TGI [46] was > 100 µM, the TGI [47] was > 100 µM and the TGI [48] was > 100 µM.

With `CC1(C)C2CCC1(C)[C@H](O)[C@H]2Nc1cc(C(F)(F)F)cc(C(F)(F)F)c1` (stereo not given in full) the TGI [1] was 12.2 µM, the TGI [49] was > 100 µM and the TGI [2] was 13.6 µM. For the same molecule, the TGI [3] was > 100 µM, the TGI [4] was 8.31 µM and the TGI [5] was 13.1 µM. The TGI [6] was 3.28 µM, the TGI [7] was 12.1 µM and the TGI [8] was 12.5 µM. The TGI [9] was 9.8 µM, the TGI [10] was 8.17 µM and the TGI [11] was 12.6 µM. The TGI [12] was 17.7 µM, the TGI [14] was 12.5 µM and the TGI [15] was 11.5 µM. The TGI [16] was 7.72 µM, the TGI [17] was 10.7 µM and the TGI [18] was 10.4 µM. For the same molecule, the TGI [19] was 15.6 µM, the TGI [20] was 9.12 µM and the TGI [21] was > 100 µM. It also gave a TGI [22] of 15.3 µM, a TGI [23] of 11.6 µM and a TGI [24] of 5.91 µM. It also gave a TGI [25] of 19.4 µM, a TGI [26] of 6.98 µM and a TGI [27] of 12 µM. For the same molecule, the TGI [28] was 7.13 µM, the TGI [29] was 6.01 µM and the TGI [30] was 17.3 µM. For the same molecule, the TGI [31] was 21.1 µM, the TGI [32] was 9.26 µM and the TGI [33] was 8.42 µM. For the same molecule, the TGI [34] was 7.11 µM, the TGI [50] was 9.03 µM and the TGI [35] was 8.02 µM. The TGI [51] was 7.27 µM, the TGI [36] was 15.6 µM and the TGI [37] was 5.45 µM. For the same molecule, the TGI [38] was 7.14 µM, the TGI [39] was 17.6 µM and the TGI [52] was 13.8 µM. It also gave a TGI [40] of 16.2 µM, a TGI [53] of 3.56 µM and a TGI [41] of 9.23 µM. For the same molecule, the TGI [42] was 12 µM, the TGI [43] was 6.99 µM and the TGI [44] was 9.89 µM. The TGI [45] was 14.2 µM, the TGI [46] was 12.9 µM and the TGI [47] was > 100 µM. For the same molecule, the TGI [48] was 12.7 µM.

From PubChem BioAssay (NCI)
